Series [1] relates to Human immunodeficiency virus 1. The experiment in a line: Anti-viral activity against wild type HIV1 strain IIIB infected in human MT2 cells assessed as protection of cells from infection. Format: functional, organism-based. Particulars: Human immunodeficiency virus 1, IIIB.
Series [2] has as its target Human immunodeficiency virus type 1 reverse transcriptase (Human immunodeficiency virus 1, UniProt Q72547). Briefly: Inhibition of HIV1 reverse transcriptase using r(A)350 template and d(T)16 primer as substrate preincubated for 1 hr before adding substrate by PicoGreen EnzChek Reverse Transcriptase Assay.
The subject of another series is MT2. Briefly: Cytotoxicity against human MT2 cells assessed as inhibition of cell growth. Format: toxicity, cell-based.
Series [3] can be described thus: Therapeutic index, ratio of CC50 for cytotoxicity against human MT2 cells to EC50 for antiviral activity against wild type HIV1 strain IIIB infected in human MT2 cells assessed as protection of cells from infection. Type of series: toxicity, cell-based. The settings on record: read-out: TI.

Each structure is given as a SMILES string. A value given as a limit tells only on which side of the number the result lay.

On to `N#Cc1cc(Cl)cc(Oc2ccc(Cl)cc2OCCn2cc(Cl)c(=O)[nH]c2=O)c1`, for which, in series [1], the EC50 (usually the midpoint of the concentration-response curve) came to 17 nM.
In the case of `C=CC(=O)NCCOc1cc(Cl)ccc1Oc1cc(Cl)cc(C#N)c1`, it took 60000 nM to reach half-maximal inhibition in series [2] (IC50). Further, the 50% cytotoxic concentration (CC50) (commonly the concentration at which the toxic effect on the cells reaches its halfway point) in the series with MT2 amounted to 42 µM. Besides, in series [1], the EC50 was found to be 12500 nM.
Taken in the same sequence, the figures for `N#Cc1cc(Cl)cc(Oc2ccc(Cl)cc2OCc2ccccc2)c1` were 1300 nM, more than 100 µM and 41000 nM.
Taken in the same sequence, the figures for `C=CC(=O)N(C)CCOc1cc(Cl)ccc1Oc1cc(Cl)cc(C#N)c1` were 60 nM, 27 µM and 400 nM.
`C=CC(=O)n1c(=O)n(CCOc2ccccc2Oc2cccc3cc(C#N)ccc23)c2ccccc21`: the selectivity ratio in series [3] is 9000. The IC50 (in general, the concentration needed to halve the response being measured) in series [2] is less than 5 nM. In addition, the CC50 in the series with MT2 is 4.5 µM. The EC50 in series [1] turned out to be 1 nM.
In turn, `N#Cc1cc2c(Oc3ccccc3OCCC(=O)NCC(F)F)cccn2c1` registered an IC50 in series [2] of 1300 nM. For the same compound, the CC50 in the series with MT2 is more than 100 µM. In addition, the 50% effective concentration (EC50) in series [1] turned out to be 2100 nM.
The like results for `C=CC(=O)N(C)CCOc1cc(Cl)ccc1Oc1cccn2cc(C#N)cc12` were, in that order, 26 nM, 30 µM and 28 nM.
`N#Cc1ccc2c(Oc3ccccc3OCCC(=O)N3CCCC3)cccc2c1` showed an IC50 in series [2] of 20 nM. Further, in the series with MT2, the cytotoxic concentration (CC50) is 20 µM. For the same compound, the EC50 in series [1] came out at 14 nM.
`CN(CCOc1ccc(Cl)c(Oc2cc(Cl)cc(C#N)c2)c1)C(=O)CCl` displayed a concentration for half-maximal inhibition (IC50) in series [2] of 1200 nM. In addition, the CC50 with MT2 stood at 1.3 µM.
Turning to `C=CC(=O)NCCc1ccc(Cl)c(Oc2cc(Cl)cc(C#N)c2)c1`, half-maximal inhibition in series [2] (IC50) required 400 nM. Further, the CC50 in the series on MT2 stood at 29 µM. In addition, the concentration giving a half-maximal response (EC50) in series [1] was 3100 nM.
Taken in the same sequence, the figures for `C=CC(=O)N(C)CCOc1cc(Cl)ccc1Oc1cccc2cc(C#N)ccc12` were 25 nM, 16 µM and 17 nM.
As to `N#Cc1cc(Cl)cc(Oc2cc(OCCNC(=O)CCl)ccc2Cl)c1`, the IC50 in series [2] worked out at 2750 nM. The half-maximal cytotoxic concentration (CC50) in the series on MT2 amounted to 5.8 µM.
As for `CN(C)C(=O)CCOc1ccccc1Oc1cccc2cc(C#N)ccc12`, in series [2], 20 nM corresponded to half-maximal inhibition (IC50). The 50% cytotoxic concentration (CC50) in the series with MT2 turned out to be 33 µM. Besides, the concentration giving a half-maximal response (EC50) in series [1] worked out at 3 nM.
`C=CC(=O)n1c(=O)n(CCOc2cc(Cl)ccc2Oc2cc(Cl)cc(C#N)c2)c2ccccc21` registered a half-inhibitory concentration (IC50) in series [2] of 150 nM. For the same compound, in the series with MT2, the CC50 was determined as 8 µM. Also, the concentration for a half-maximal effect (EC50) in series [1] was determined as 470 nM.
Compound `C=CC(=O)N(C)CCOc1ccc(Cl)c(Oc2cc(Cl)cc(C#N)c2)c1` yielded a 50% inhibitory concentration (IC50) in series [2] of 750 nM. The cytotoxic concentration (CC50) with MT2 stood at 17 µM. In addition, the concentration giving a half-maximal response (EC50) in series [1] amounted to 10000 nM.
The like results for `C=CC(=O)N(C)CCOc1ccc(Cl)c(Oc2cccc3cc(C#N)ccc23)c1` were, in that order, less than 10 nM, 25 µM and 8500 nM.
Take `CN(CCc1ccc(Cl)c(Oc2cc(Cl)cc(C#N)c2)c1)C(=O)CCl`: half-maximal inhibition in series [2] (IC50) was put at 4400 nM. Further, the half-maximal cytotoxic concentration (CC50) in the series on MT2 stood at 0.47 µM.
`N#Cc1cc(Cl)cc(Oc2ccc(Cl)cc2OCCc2ccccc2)c1` gave an IC50 in series [2] of 60 nM. Moreover, the CC50 in the series on MT2 was more than 100 µM. Besides, the concentration giving a half-maximal response (EC50) in series [1] turned out to be 3100 nM.
Regarding `C=CC(=O)Nc1cccc(COc2cc(Cl)ccc2Oc2cc(Cl)cc(C#N)c2)c1`, in series [2], the IC50 came out at 900 nM. Further, the CC50 with MT2 amounted to 19 µM.
In series [2], `N#Cc1cc2c(Oc3ccccc3OCCC(=O)N3CCOCC3)cccn2c1` showed an IC50 of 60 nM. The CC50 in the series on MT2 was more than 100 µM. Besides, in series [1], the EC50 came out at 190 nM.
In series [2], `C=CC(=O)NCCOc1ccc(Cl)c(Oc2cc(Cl)cc(C#N)c2)c1` showed an IC50 of 1100 nM. Further, in the series on MT2, the CC50 stood at 32 µM.
With `C=CC(=O)Nc1cccc(CCOc2cc(Cl)ccc2Oc2cc(Cl)cc(C#N)c2)c1`, in series [2], it took 60 nM to reach half-maximal inhibition (IC50). For the same compound, the 50% cytotoxic concentration (CC50) in the series with MT2 worked out at 17 µM. The EC50 in series [1] worked out at 3600 nM.
Taken in the same sequence, the figures for `C=CC(=O)N(C)CCOc1ccccc1Oc1cccn2cc(C#N)cc12` were less than 10 nM, 8.8 µM and 3 nM.
Taken in the same sequence, the figures for `C=CC(=O)N(C)CCc1ccc(Cl)c(Oc2cc(Cl)cc(C#N)c2)c1` were 500 nM, 50 µM and 6200 nM.
Taken in the same sequence, the figures for `N#Cc1cc2c(Oc3ccccc3OCCC(=O)N3CCCC3)cccn2c1` were 20 nM, more than 100 µM and 17 nM.
In series [2], `CN(C)C(=O)CCOc1ccccc1Oc1cccn2cc(C#N)cc12` displayed an IC50 of 20 nM. The 50% cytotoxic concentration (CC50) with MT2 was more than 100 µM. Further, the EC50 in series [1] was 36 nM.
In turn, `N#Cc1cc(Cl)cc(Oc2cc(CCNC(=O)CCl)ccc2Cl)c1` displayed an IC50 in series [2] of 750 nM. The cytotoxic concentration (CC50) with MT2 was 2.7 µM.
`C=CC(=O)N(C)CCOc1ccccc1Oc1cc(Cl)cn2cc(C#N)cc12` had an IC50 in series [2] of 20 nM. Further, in the series on MT2, the half-maximal cytotoxic concentration (CC50) worked out at 33 µM. Moreover, the half-maximal effective concentration (EC50) in series [1] was found to be 48 nM.
The compound `C=CC(=O)N(C)CCOc1ccccc1Oc1cccc2cc(C#N)ccc12` showed an IC50 in series [2] of less than 10 nM. Further, the CC50 in the series on MT2 stood at 4 µM. Further, the concentration giving a half-maximal response (EC50) in series [1] amounted to 1 nM.
The like results for `C=CS(=O)(=O)CCOc1ccc(Cl)c(Oc2cc(Cl)cc(C#N)c2)c1` were, in that order, 8000 nM, 7.5 µM and 5700 nM.
With `C=CS(=O)(=O)CCc1ccc(Cl)c(Oc2cc(Cl)cc(C#N)c2)c1`, in series [2], the half-inhibitory concentration (IC50) was 100000 nM. For the same compound, in the series with MT2, the CC50 is 6 µM.
In series [2], `C=CC(=O)N(C)CCOc1ccc(Cl)c(Oc2cccn3cc(C#N)cc23)c1` came in with a half-maximal inhibitory concentration (IC50) of 70 nM. Besides, the CC50 in the series with MT2 amounted to 31 µM. Besides, in series [1], the EC50 was 3900 nM.
Taken in the same sequence, the figures for `N#Cc1cc(Cl)cc(Oc2ccc(Cl)cc2OCCc2cccc(S(=O)(=O)F)c2)c1` were 150 nM, 70 µM and 45000 nM.
In turn, `C=CS(=O)(=O)c1cccc(CCOc2cc(Cl)ccc2Oc2cc(Cl)cc(C#N)c2)c1` returned an IC50 in series [2] of 9000 nM. Moreover, in the series with MT2, the cytotoxic concentration (CC50) was found to be 16 µM.

(Values after ChEMBL document CHEMBL5634149, “Covalent and noncovalent strategies for targeting Lys102 in HIV-1 reverse transcriptase” (Eur J Med Chem, 2023).)
